Structures can show the parent of a compound that is named as a salt.
System: murine UVB-induced epidermal hyperplasia model
Assay: Murine UVB-induced epidermal hyperplasia model: epidermis thickness (H&E histology)
Type: in vivo, SKH1 mice
Conditions: UVB 120 mJ/cm^2
Method: The back skin of the SKH1 mice was exposed to 120 mJ/cm^2 UVB using the Biospectra system equipped with UVB sunlamps with a maximum emission peak at 312 nm. Irradiations were performed under isoflurane gaseous anesthesia. Vehicle (PEG400/EtOH/PHY (30/20/50) p/p) or brimonidine at 0.2% or 2% was administered by topical route (100 μl) on a 10 cm^2-area on the back using a micropipette. The area is located on the upper part of the back to prevent the animals from licking themselves. […]
One hour after the third topical treatment and one hour before euthanasia, mice received an i.p. injection of 5-ethynyl-2′-deoxyuridine (EdU) at 100 mg/kg. […] For epidermal thickness, two sections per animal (7 μm) were stained in H&E. Skin histology and the epidermis thickness were analyzed using image analysis (mScope 3.9, Aurora mScope) on scanned slide pictures (NanoZoomer C9600-12, Hamamatsu Photonics K.K). […] Nuclei were also stained with DAPI (5 mg/ml) diluted in Vectashield Hard Set Mounting medium for fluorescence ref: 1-1400 Vector Laboratories). The number of keratinocyte stained with Alexa Fluor® 594 was counted from digital images (NanoZoomer C9600-12, Hamamatsu Photonics K.K) and the epidermis length of each section determined using an in-house dedicated tool. […]

## Brc1c(NC2=NCCN2)ccc2nccnc12 [brimonidine tartrate, (5-Bromo-quinoxalin-6-yl)-(4,5-dihydro-1H-imidazol-2-yl)-amine (Brimonidine)]
0.2% topical, pre-treatment
  inhibition of acanthosis (epidermis thickness): no effect
2% topical, pre-treatment (1 h before UV irradiation, then twice more at 23 hours apart)
  inhibition of acanthosis (epidermis thickness): −23%
